Measured values reported in patent US12540118B2, “Dendrene amide compound, bactericide and use thereof” (Jiangsu Flag Chemical Industry Co., Ltd., priority 2020, dated 2026).
Read-outs that look alike come from different tables or passages of the source.

Key:
[1] = test system: Sphaerotheca fuliginea; assay: Sphaerotheca fuliginea potting method; type: in vivo; conditions: Podosphaera fuliginea; 100 mg/L; read-out: Sphaerotheca fuliginea control rating
Experimental: The fungicidal activity of the control agents and target compounds are determined. The test and investigation method refers to SOP-SC-1101 sphaerotheca fuliginea potting method in disinfectant rolls written by KANGZHUO and GUBAOGEN in “Standard operation specification for testing biological activity of pesticides”.

[2] = test system: Sclerotinia sclerotiorum; assay: Mycelial growth rate method; type: cell-based
[3] = test system: Fusarium fujikura; assay: Protective activity against rice bakanae disease; type: in vivo; conditions: 5 μg/mL, solvent DMSO
Text: (§1) Test of protective activity and therapeutic activity of Compound 1 against rice bakanae disease.
(§2) The test and investigation method refers to SOP-SC-1112 rice bakanae disease potting method in disinfectant rolls written by KANGZHUO and GUBAOGEN in “Standard operation specification for testing biological activity of pesticides”.
(§3) The phenamacril is a mainstream medicament for preventing and treating the rice bakanae disease at present, resistant strains are more and more along with long-time use, and […] strains showing sensitivity and one strain showing resistance to the […] are selected as test strains.
(§4) Four Fusarium fujikura SX18-32, SX18-50, SX18-59 and SX18-63 are selected for testing strains, and the current mainstream commercial bactericide phenamacril is selected as a positive control. Wherein SX18-32, SX18-50 and SX18-59 show sensitivity to phenamacril and SX18-63 show resistance to phenamacril.

[4] = target: T1, succinate dehydrogenase (Sus scrofa, UniProt A5GZW8+D0VWV4+Q007T0); assay: Enzyme activity assay, succinate dehydrogenase (DCIP reduction); type: biochemical, porcine; conditions: read-out: Inhibitors (10 μM, SQR)
T1 construct: isolated from porcine hearts; from tissue; host or cells: porcine heart
How it was run: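 Porcine heart succinate dehydrogenase (2 nM) in 100 mM sodium phosphate pH 7.4, 0.3 mM EDTA, 20 mM sodium succinate and 53 μM DCIP at 23° C with stirring. DCIP reduction followed at 600 nm (ε 21 mM^−1 cm^−1); linear slope minus baseline gives initial rate.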

[5] = test system: Phytophthora infestans; type: cell-based
[6] = test system: Fusarium fujikura; assay: Therapeutic activity against rice bakanae disease; type: in vivo; conditions: 5 μg/mL, solvent DMSO
Text: as §1, §2, §3, §4

[7] = test system: Alternaria alternata; assay: Mycelial growth rate method; type: cell-based
[8] = test system: Fusarium wilt of water melon; assay: Mycelial growth rate method; type: cell-based
[9] = test system: Rhizoctonia cerealis; assay: Mycelial growth rate method; type: cell-based
[10] = test system: Erysiphe graminis; assay: Erysiphe graminis potting method; type: in vivo; conditions: Blumeria graminis; 100 mg/L; read-out: Erysiphe graminis control rating
Experimental: The fungicidal activity of the control agents and target compounds are determined. The test and investigation method refers to SOP-SC-1116 Erysiphe graminis potting method in disinfectant rolls written by KANGZHUO and GUBAOGEN in “Standard operation specification for testing biological activity of pesticides”.

[11] = test system: Gibberella zeae; type: cell-based
[12] = test system: Alternaria solani; assay: Mycelial growth rate method; type: cell-based
[13] = test system: Phytophthora capsici; assay: Mycelial growth rate method; type: cell-based
[14] = test system: Sphaerotheca fuliginea; assay: Field test of sphaerotheca fuliginea; type: in vivo
Experimental: The test is carried out according to GB/T17980.30-2000 of pesticide field efficacy test guidelines. The survey method is to randomly take four points for each cell and survey all leaves of 2 plants per point. And investigating the sphaerotheca fuliginea incidence before the first application, and investigating the sphaerotheca fuliginea incidence 7 and 14 days after the second application respectively, and calculating the disease index and the controlling effect.

[15] = test system: Corn big spot; assay: Mycelial growth rate method; type: cell-based
[16] = strain SX18-59 (S), listed as compound 1
[17] = strain SX18-63 (R), listed as compound 1

T1 sequence (Q0QF01 43-664 partner): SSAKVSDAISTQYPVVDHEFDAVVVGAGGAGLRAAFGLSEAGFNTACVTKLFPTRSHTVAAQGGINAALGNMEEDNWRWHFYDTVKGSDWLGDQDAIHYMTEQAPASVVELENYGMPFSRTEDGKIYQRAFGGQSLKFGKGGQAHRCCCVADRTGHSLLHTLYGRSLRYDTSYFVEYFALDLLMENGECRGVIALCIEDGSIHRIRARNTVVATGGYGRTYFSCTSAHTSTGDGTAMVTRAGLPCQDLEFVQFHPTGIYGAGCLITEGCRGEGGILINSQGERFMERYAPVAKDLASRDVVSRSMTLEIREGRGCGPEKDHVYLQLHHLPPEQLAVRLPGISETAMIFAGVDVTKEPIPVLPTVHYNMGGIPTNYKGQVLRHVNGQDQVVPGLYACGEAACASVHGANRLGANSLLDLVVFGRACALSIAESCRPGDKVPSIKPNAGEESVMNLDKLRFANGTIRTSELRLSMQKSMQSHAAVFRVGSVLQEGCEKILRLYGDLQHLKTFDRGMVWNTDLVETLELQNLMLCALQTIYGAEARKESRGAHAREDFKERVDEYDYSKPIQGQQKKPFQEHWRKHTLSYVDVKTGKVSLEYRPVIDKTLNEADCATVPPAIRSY
T1 sequence (Q007T0 29-280): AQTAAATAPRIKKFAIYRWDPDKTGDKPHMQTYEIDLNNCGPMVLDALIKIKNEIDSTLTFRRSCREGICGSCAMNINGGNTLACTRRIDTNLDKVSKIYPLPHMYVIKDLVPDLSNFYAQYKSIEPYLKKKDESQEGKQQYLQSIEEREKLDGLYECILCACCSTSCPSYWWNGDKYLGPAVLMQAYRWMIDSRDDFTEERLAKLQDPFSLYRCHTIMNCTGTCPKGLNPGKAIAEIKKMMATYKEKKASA
T1 sequence (D0VWV4 30-169): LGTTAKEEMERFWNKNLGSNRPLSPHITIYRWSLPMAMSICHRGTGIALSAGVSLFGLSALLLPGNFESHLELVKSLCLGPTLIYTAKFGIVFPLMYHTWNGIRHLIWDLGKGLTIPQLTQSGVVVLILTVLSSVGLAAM
T1 sequence (A5GZW8 57-159 limits assumed): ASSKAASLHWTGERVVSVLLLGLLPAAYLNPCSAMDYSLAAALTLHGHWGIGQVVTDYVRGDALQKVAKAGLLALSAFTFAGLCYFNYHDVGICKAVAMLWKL

For `C=C(CN(C(=O)c1c(C(F)F)nn(C)c1F)C1CC1)c1ccc(Cl)cc1Cl` [Compound 1], the pest or weed control at 100 µg/mL [1] was 80 to 100%, the “Inhibition ratio (%) Sclerotinia sclerotiorum” value ([2]; 1.5625 μg/mL) was “C (C <70%)” and the “Inhibition ratio (%) Sclerotinia sclerotiorum” value ([2]; 6.25 μg/mL) was “A (80% ≤ A ≤ 100%)”. For the same molecule, the “Inhibition ratio (%) Sclerotinia sclerotiorum” value ([2]; 25 μg/mL) was “A (80% ≤ A ≤ 100%)”, the Protective activity ([3]; strain SX18-32 (S)) was 97.4% and the Protective activity ([3]; strain SX18-32 (S), listed as compound 1) was “more than 90%”. The Protective activity ([3]; strain SX18-59 (S)) was 100.0%, the Protective activity [3, 16] was “more than 90%” and the Protective activity ([3]; strain SX18-63 (R)) was 93.7%. For the same molecule, the Protective activity [3, 17] was “more than 90%”, the inhibition at 10 µM [4] was > 90% and the “Inhibition ratio (%) Phytophthora infestans” value ([5]; 1.5625 μg/mL) was “A (80% ≤ A ≤ 100%)”. The “Inhibition ratio (%) Phytophthora infestans” value ([5]; 6.25 μg/mL) was “A (80% ≤ A ≤ 100%)”, the “Inhibition ratio (%) Phytophthora infestans” value ([5]; 25 μg/mL) was “A (80% ≤ A ≤ 100%)” and the Therapeutic activity ([6]; strain SX18-32 (S)) was 60.2%. For the same molecule, the Therapeutic activity ([6]; strain SX18-59 (S)) was 96.8%, the Therapeutic activity [6, 16] was 96.8% and the Therapeutic activity ([6]; strain SX18-63 (R)) was 83.3%. The Therapeutic activity [6, 17] was “far better therapeutic effect”, the “Inhibition ratio (%) Alternaria alternata” value ([7]; 1.5625 μg/mL) was “A (80% ≤ A ≤ 100%)” and the “Inhibition ratio (%) Alternaria alternata” value ([7]; 6.25 μg/mL) was “A (80% ≤ A ≤ 100%)”. The “Inhibition ratio (%) Alternaria alternata” value ([7]; 25 μg/mL) was “A (80% ≤ A ≤ 100%)”, the “Inhibition ratio (%) Fusarium wilt of water melon” value (“Inhibition ratio (%) Fusarium wilt” below) ([8]; 1.5625 μg/mL) was “A (80% ≤ A ≤ 100%)” and the “Inhibition ratio (%) Fusarium wilt” value ([8]; 6.25 μg/mL) was “A (80% ≤ A ≤ 100%)”. For the same molecule, the “Inhibition ratio (%) Fusarium wilt” value ([8]; 25 μg/mL) was “A (80% ≤ A ≤ 100%)”, the “Inhibition ratio (%) Rhizoctonia cerealis” value ([9]; 1.5625 μg/mL) was “C (C <70%)” and the “Inhibition ratio (%) Rhizoctonia cerealis” value ([9]; 6.25 μg/mL) was “B (70% ≤ B < 80%)”. The “Inhibition ratio (%) Rhizoctonia cerealis” value ([9]; 25 μg/mL) was “A (80% ≤ A ≤ 100%)”, the pest or weed control at 100 µg/mL [10] was 80 to 100% and the “Inhibition ratio (%) Gibberella zeae” value ([11]; 1.5625 μg/mL) was “A (80% ≤ A ≤ 100%)”. The “Inhibition ratio (%) Gibberella zeae” value ([11]; 6.25 μg/mL) was “A (80% ≤ A ≤ 100%)”, the “Inhibition ratio (%) Gibberella zeae” value ([11]; 25 μg/mL) was “A (80% ≤ A ≤ 100%)” and the “Inhibition ratio (%) Alternaria solani” value ([12]; 1.5625 μg/mL) was “A (80% ≤ A ≤ 100%)”. For the same molecule, the “Inhibition ratio (%) Alternaria solani” value ([12]; 6.25 μg/mL) was “A (80% ≤ A ≤ 100%)”, the “Inhibition ratio (%) Alternaria solani” value ([12]; 25 μg/mL) was “A (80% ≤ A ≤ 100%)” and the “Inhibition ratio (%) Phytophthora capsici” value ([13]; 1.5625 μg/mL) was “B (70% ≤ B < 80%)”. The “Inhibition ratio (%) Phytophthora capsici” value ([13]; 6.25 μg/mL) was “A (80% ≤ A ≤ 100%)”, the “Inhibition ratio (%) Phytophthora capsici” value ([13]; 25 μg/mL) was “A (80% ≤ A ≤ 100%)” and the Controlling effect % ([14]; 50 mg/L) was 82%. The Controlling effect % ([14]; 50 mg/L, listed as compound 1) was “more than 80%”, the Controlling effect % ([14]; 100 mg/L) was 88% and the Controlling effect % ([14]; 100 mg/L, listed as compound 1) was “the same control effect as the current mainstream insecticides”. For the same molecule, the Controlling effect % ([14]; 200 mg/L) was 92%, the “Inhibition ratio (%) Corn big spot” value ([15]; 1.5625 μg/mL) was “A (80% ≤ A ≤ 100%)” and the “Inhibition ratio (%) Corn big spot” value ([15]; 6.25 μg/mL) was “A (80% ≤ A ≤ 100%)”. For the same molecule, the “Inhibition ratio (%) Corn big spot” value ([15]; 25 μg/mL) was “A (80% ≤ A ≤ 100%)”.
